Reference: the NIST ThermoML archive (doi:10.1016/j.jct.2019.03.014)

Columns and labels:
[1] = xn = mol fraction of the nth substance listed; settings: Ring tensiometer
[2] = Ring tensiometer

OCC(O)CO [glycerol] + CCCO
surface tension liquid-gas [mN/m], [1]
Settings | x2 = 0 | x2 = 0.1 | x2 = 0.2 | x2 = 0.3 | x2 = 0.4 | x2 = 0.5 | x2 = 0.6 | x2 = 0.7 | x2 = 0.8 | x2 = 0.9
293.2 K | 63.1 | 41.8 | 33.4 | 30.1 | 28.3 | 27.3 | 26.5 | 26 | 25.3 | 24.7
303.2 K | 62.4 | 41.5 | 33.1 | 29.7 | 27.9 | 26.9 | 26.1 | 25.5 | 24.8 | 24.1
313.2 K | 62 | 41.2 | 32.8 | 29.3 | 27.7 | 26.4 | 25.7 | 25 | 24.2 | 23.3
323.2 K | 61.1 | 40.9 | 32.5 | 28.9 | 27.2 | 26 | 25.3 | 24.5 | 23.6 | 22.5
333.2 K | 60.5 | 40.5 | 32.2 | 28.5 | 26.6 | 25.6 | 25 | 24 | 23 | 21.6

OCC(O)CO [glycerol] + CC(C)O
surface tension liquid-gas [mN/m], [1]
Settings | x2 = 0 | x2 = 0.1 | x2 = 0.2 | x2 = 0.3 | x2 = 0.4 | x2 = 0.5 | x2 = 0.6 | x2 = 0.7 | x2 = 0.8 | x2 = 0.9
293.2 K | 63.1 | 45.7 | 34.3 | 28.8 | 26.7 | 25.6 | 24.8 | 23.9 | 22.8 | 21.9
303.2 K | 62.4 | 45.1 | 34 | 28.5 | 26.2 | 25.1 | 24.2 | 23.4 | 22.3 | 21.4
313.2 K | 62 | 44.4 | 33.6 | 28 | 25.8 | 24.6 | 23.7 | 23 | 21.8 | 20.9
323.2 K | 61.1 | 43.9 | 32.9 | 27.6 | 25.5 | 24.1 | 23.5 | 22.5 | 21.2 | 20
333.2 K | 60.5 | 43.2 | 32.2 | 27.2 | 25 | 23.7 | 22.6 | 22.1 | 20.6 | 19.1

OCC(O)CO [glycerol]
[2]
Settings | surface tension liquid-gas [mN/m]
293.2 K | 63.1
298.2 K | 62.9
303.2 K | 62.4
313.2 K | 62
323.2 K | 61.1
333.2 K | 60.5

OCC(O)CO [glycerol] + CCO
surface tension liquid-gas [mN/m], [1]
Settings | x2 = 0 | x2 = 0.1 | x2 = 0.2 | x2 = 0.3 | x2 = 0.4 | x2 = 0.5 | x2 = 0.6 | x2 = 0.7 | x2 = 0.8 | x2 = 0.9
293.2 K | 63.1 | 52.9 | 41.7 | 36.1 | 31.9 | 29 | 27.5 | 26.2 | 24.9 | 23.7
303.2 K | 62.4 | 52.4 | 41.4 | 35.9 | 31.6 | 28.5 | 27.1 | 25.4 | 24.2 | 23.2
313.2 K | 62 | 52 | 41.1 | 35.7 | 31.2 | 27.9 | 26.7 | 24.5 | 23.5 | 22.6
323.2 K | 61.1 | 51.5 | 40.7 | 35.4 | 30.9 | 27.7 | 26.3 | 23.6 | 22.8 | 22
333.2 K | 60.5 | 51.1 | 40.5 | 35 | 30.6 | 27.2 | 25.9 | 22.7 | 22.1 | 21.2

CC(C)O [propan-2-ol] + OCC(O)CO
[1], x1 = 1
Settings | surface tension liquid-gas [mN/m]
293.2 K | 21.4
303.2 K | 20.7
313.2 K | 19.7
323.2 K | 18.7
333.2 K | 17.6

CCCO [propan-1-ol]
[2]
Settings | surface tension liquid-gas [mN/m]
293.2 K | 23.7
303.2 K | 22.9
313.2 K | 22.1
323.2 K | 21.3
333.2 K | 20.6

CCCCO [butan-1-ol] + OCC(O)CO
[1], x1 = 1
Settings | surface tension liquid-gas [mN/m]
293.2 K | 24.7
303.2 K | 23.8
313.2 K | 22.8
323.2 K | 21.6
333.2 K | 20.3

CCCCO [butan-1-ol]
[2]
Settings | surface tension liquid-gas [mN/m]
293.2 K | 24.7
303.2 K | 23.8
313.2 K | 22.8
323.2 K | 21.6
333.2 K | 20.3

OCC(O)CO [glycerol] + CCCCO
surface tension liquid-gas [mN/m], [1]
Settings | x2 = 0 | x2 = 0.1 | x2 = 0.2 | x2 = 0.3 | x2 = 0.4 | x2 = 0.5 | x2 = 0.6 | x2 = 0.7 | x2 = 0.8 | x2 = 0.9
293.2 K | 63.1 | 33.1 | 28 | 26.4 | 26.2 | 25.9 | 25.7 | 25.4 | 25.2 | 24.8
303.2 K | 62.4 | 32.9 | 27.7 | 26.2 | 26 | 25.7 | 25.4 | 25.1 | 24.8 | 24.3
313.2 K | 62 | 32.8 | 27.3 | 26.1 | 25.8 | 25.5 | 25.1 | 24.8 | 24.5 | 23.7
323.2 K | 61.1 | 32.7 | 27 | 25.6 | 25.2 | 24.7 | 24.3 | 24 | 23.7 | 22.7
333.2 K | 60.5 | 32.5 | 26.7 | 25.3 | 24.8 | 24.3 | 23.7 | 23.2 | 22.9 | 21.6

CCO [ethanol] + OCC(O)CO
[1], x1 = 1
Settings | surface tension liquid-gas [mN/m]
293.2 K | 22.3
303.2 K | 21.4
313.2 K | 20.6
323.2 K | 19.8
333.2 K | 19

CCO [ethanol]
[2]
Settings | surface tension liquid-gas [mN/m]
293.2 K | 22.3
303.2 K | 21.4
313.2 K | 20.6
323.2 K | 19.8
333.2 K | 19

CC(C)O [propan-2-ol]
[2]
Settings | surface tension liquid-gas [mN/m]
293.2 K | 21.4
303.2 K | 20.7
313.2 K | 19.7
323.2 K | 18.7
333.2 K | 17.6

CCCO [propan-1-ol] + OCC(O)CO
[1], x1 = 1
Settings | surface tension liquid-gas [mN/m]
293.2 K | 23.7
303.2 K | 22.9
313.2 K | 22.1
323.2 K | 21.3
333.2 K | 20.6
